Reference: article PMC11931052, “Efficacy of dispirotripiperazine PDSTP in a golden Syrian hamster model of SARS-CoV-2 infection” (Frontiers in Microbiology, 2025)

Test system: SARS-CoV-2 BA.4/5 variant
Type: cell-based
Details: Calu-3 cells; PDSTP 20 and 4 μM; plaque assay

Cc1nc(N2CC[N+]3(CC2)CC[N+]2(CCNCC2)CC3)c([N+](=O)[O-])c(N2CC[N+]3(CC2)CC[N+]2(CCNCC2)CC3)n1.Cl.Cl.O.O.O.O.O.O.O.O.O.[Cl-].[Cl-].[Cl-].[Cl-] [PDSTP, 3,3′-(2-methyl-5-nitropyrimidine-4,6-diyl)bis-3,12-diaza-6,9-diazonia-dispiro[5.2.5.2]hexadecane tetrachloride dihydrochloride nonahydrate]
Effect on viral titers, BA.4/5 variant: strongly reduce viral titers
